Reference: patent US4960755A, “BU-3608 derivatives” (Bristol-Myers Company, priority 1988, dated 1990)
Converted amounts (≈) assume the structure as drawn. Like-named read-outs stand apart in the source and are kept apart here.

Assays:
[1] = Solubility in phosphate-buffered saline solutions, PBS(-) and PBS(+); type: physicochemical
Description: The solubility of the various antibiotics was determined in phosphate-buffered saline (PBS) solutions and the data obtained are shown below. PBS(-) refers to a solution containing for each liter 0.2 g KCl, 0.2 g KH2 PO4, 8 g NaCl, and 1.15 g Na2 HPO4; PBS(+) contains additionally 100 mg MgCl2.6H2 O and 100 mg CaCl2.

Solubility in water = type: physicochemical; conditions: in words
Candida albicans A9540 = assay: In vivo activity against Candida albicans A9540 infection in mice; set-up: species or system male ICR mice; conditions: for ED50: Candida albicans, read-out: PD50 (dose that protects 50% of the animals from infection)
Description: In vivo activity of compounds of the present invention was tested against Candida albicans A9540 infection in mice. Test organisms were cultured for 18 hours at 28° C. in YGP medium (yeast extract, glucose, peptone, K2 HPO4, MgSO4) and then suspended in saline. Male ICR mice weighing 20 to 24 g were infected intravenously with about 10 times the median lethal dose of the test fungus. The antibiotic at various dose levels was administered to groups of 5 mice each intravenously just after the fungal infection. The dose that protects 50% of the animals from infection (PD50, mg/kg) was calculated from survival rates recorded on the 20th day after the fungal challenge. All control animals died within 7 to 15 days after infection. The PD50 for compounds of Examples 5, 7, and 8 are 14 mg/kg (toxic), 11 mg/kg, and 3.5 mg/kg, respectively.

[2] = pbs(+) with mgcl2, PBS(+), containing additionally MgCl2 and CaCl2, read-out: Solubility
[3] = A9540, 480 h, intravenous just after infection, survival on 20th day

Row | Structure (SMILES) | solubility [1, 2] [mg/mL] | solubility ([1]; pbs(-), read-out: Solubility) [mg/mL] | also measured
1 | CN[C@@H]1[C@H](O[C@@H]2OC[C@@H](O)[C@H](O)[C@H]2O)[C@@H](O)[C@H](O[C@H]2c3cc(C)c(C(=O)N[C@H](C)C(=O)O)c(O)c3-c3c(cc4c(c3O)C(=O)c3cc(OC)cc(O)c3C4=O)[C@@H]2O)O[C@@H]1C [BU-3608] | 0.009 to 0.023 (≈ 10.7 to 27.4 µM) | 0.016 to 0.018 (≈ 19 to 21.4 µM) | solubility in water (Solubility in water): very limited
2 | COc1cc(O)c2c(c1)C(=O)c1c(cc3c(c1O)-c1c(cc(C)c(C(=O)N[C@H](C)C(=O)O)c1O)[C@H](O[C@@H]1O[C@H](C)[C@H](N(C)C)[C@H](O)[C@H]1O)[C@H]3O)C2=O [Example 5, N-methyl BU-3608 B] |  |  | solubility ([1]; pbs(+) with mgcl2, cacl2): 0.042 mg/mL (≈ 58.1 µM); solubility ([1]; pbs(-)): 0.33 mg/mL (≈ 457 µM); ED50 (Candida albicans A9540; A9540, iv, 480 h): 14 mg/kg; toxicity remark at PD50 (Candida albicans A9540; intravenous, at 14 mg/kg, mice): toxic
3 | COc1cc(O)c2c(c1)C(=O)c1c(cc3c(c1O)-c1c(cc(C)c(C(=O)NCC(=O)O)c1O)[C@H](O[C@@H]1O[C@H](C)[C@H](N(C)C)[C@H](O)[C@H]1O)[C@H]3O)C2=O [Example 6, N,N-dimethyl desxylosyl BU-3608 E] |  |  | solubility ([1]; pbs(+) with mgcl2, cacl2): 0.122 mg/mL (≈ 172 µM); solubility ([1]; pbs(-)): > 2.1 mg/mL
4 | COc1cc(O)c2c(c1)C(=O)c1c(cc3c(c1O)-c1c(cc(C)c(C(=O)NCC(=O)O)c1O)[C@H](O[C@@H]1O[C@H](C)[C@H](N(C)C)[C@H](O[C@@H]4OC[C@@H](O)[C@H](O)[C@H]4O)[C@H]1O)[C@H]3O)C2=O [Example 7, N,N-dimethyl BU-3608 E] | > 2 | 1.8 (≈ 2140 µM) | ED50 (Candida albicans A9540; [3]): 11 mg/kg
5 | COc1cc(O)c2c(c1)C(=O)c1c(cc3c(c1O)-c1c(cc(C)c(C(=O)N[C@H](C)C(=O)O)c1O)[C@H](O[C@@H]1O[C@H](C)[C@H](N(C)C)[C@H](O[C@@H]4OC[C@@H](O)[C@H](O)[C@H]4O)[C@H]1O)[C@H]3O)C2=O [Example 8, N-methyl BU-3608] | 0.003 (≈ 3.51 µM) | 3.1 (≈ 3630 µM) | ED50 (Candida albicans A9540; [3]): 3.5 mg/kg
6 | CCCN(C)[C@@H]1[C@H](O[C@@H]2OC[C@@H](O)[C@H](O)[C@H]2O)[C@@H](O)[C@H](O[C@H]2c3cc(C)c(C(=O)N[C@H](C)C(=O)O)c(O)c3-c3c(cc4c(c3O)C(=O)c3cc(OC)cc(O)c3C4=O)[C@@H]2O)O[C@@H]1C [Example 9, N-propyl BU-3608] | 0.032 (≈ 36.2 µM) | 0.073 (≈ 82.7 µM) | 
7 | COc1cc(O)c2c(c1)C(=O)c1c(cc3c(c1O)-c1c(cc(C)c(C(=O)N[C@H](C)C(=O)O)c1O)[C@H](O[C@@H]1O[C@H](C)[C@H]([N+](C)(C)C)[C@H](O[C@@H]4OC[C@@H](O)[C@H](O)[C@H]4O)[C@H]1O)[C@H]3O)C2=O [Example 10, quaternary ammonium derivative of BU-3608] |  | > 2.7 | 
